Results published in patent US20230390296A1, “NOVEL TREATMENT AND PREVENTION OF SARCOPENIA-RELATED DISEASES” (KEIO UNIVERSITY, priority 2020, published 2023).

Assays:
[1] = system: muscle of mice (C57BL/6J) with exercise; assay: Gene analysis (RNA-seq, GSEA) of muscle of administered mice with exercise; format: in vivo, mouse
Description: Gene analysis (RNA-seq) in OK-1 administered mice (C57BL/6J) with exercise was performed by the same method as Example 2.
The category of genes with differential expression identified in Example 5 was analyzed by the same method (GSEA) as Example 3 (FIG. 6).

[2] = system: myoblast C2C12; assay: Gene analysis (RNA-seq) in C-82 treated myoblasts; format: cell-based, mouse; settings: C-82 treated C2C12
Description: This Example investigated what gene modulation C-82 is involved with in myoblast C2C12 to identify a gene that is useful in the diagnosis or treatment of sarcopenia.
Gene analysis (RNA-seq) in C-82 treated myoblasts was performed by the same method as Example 2.

[3] = system: sarcopenia mouse models; assay: Cardiac function test (echocardiogram and treadmill); format: in vivo; settings: administered versus non-administered sarcopenia mouse models
Description: This Example used mouse models prepared in the Preparation Example.
Measurement can be taken using Kumamoto Mouse Clinic (KMC) of Kumamoto University.
Mouse models were divided into two groups. Cardiac function was tested for sarcopenia mouse models administered with OK-1 and sarcopenia mouse models without administration of OK-1. Cardiac function was tested and analyzed using an echocardiogram and treadmill.
Mouse models were divided into two groups. Cardiac function was tested for sarcopenia mouse models administered with C-82 and sarcopenia mouse models without administration of C-82. Cardiac function was tested and analyzed using an echocardiogram and treadmill.

[4] = system: sarcopenia mouse models; assay: Biochemical test on organ (creatine, IL-6, cholesterol etc. concentrations); format: in vivo; settings: administered versus non-administered sarcopenia mouse models
Description: Mouse models were divided into two groups. The creatine concentration, IL-6 concentration, and cholesterol concentration were measured for sarcopenia mouse models administered with OK-1 and sarcopenia mouse models without administration of OK-1.
Mouse models were divided into two groups. The creatine concentration, IL-6 concentration, cholesterol concentration, UN (urea nitrogen is a biomarker that can predict the dysfunction of kidney or urinary system) concentration, and UA (uric acid is a biomarker for kidney or liver function) concentration were measured for sarcopenia mouse models administered with C-82 and sarcopenia mouse models without administration of C-82.

[5] = system: mouse bones; assay: Bone density (DEXA or ultrasound); format: in vivo; settings: administered versus non-administered mice
Description: This Example tested bone density for mice administered with OK-1 and mice without administration of OK-1 in order to investigate the effect of OK-1 on mouse bones. Bone density was measured using DEXA or ultrasound.
This Example tested bone density for mice administered with C-82 and mice without administration of C-82 in order to investigate the effect of C-82 on mouse bones. Bone density was measured using DEXA or ultrasound.

[6] = system: sarcopenia mouse models; assay: NTX (cross linked N-telopeptide of type I collagen) concentration; format: in vivo; settings: administered versus non-administered sarcopenia mouse models
Description: Mouse models were divided into two groups. The NTX (cross linked N-telopeptide of type I collagen) concentration was measured for sarcopenia mouse models administered with OK-1 and sarcopenia mouse models without administration of OK-1.
Mouse models were divided into two groups. The NTX (cross linked N-telopeptide of type I collagen) concentration was measured for sarcopenia mouse models administered with C-82 and sarcopenia mouse models without administration of C-82.

[7] = system: sarcopenia mouse models; assay: Metabolic disease markers (LDH, ALT, TG, HDL-C, insulin, glucose, amylase, AST concentrations); format: in vivo; settings: administered versus non-administered sarcopenia mouse models
Description: Mouse models were divided into two groups. LDH concentration, ALT concentration, TG concentration, HDL-C concentration, insulin concentration, glucose concentration, amylase concentration, AST concentration, and ALT concentration were measured for sarcopenia mouse models administered with OK-1 and sarcopenia mouse models without administration of OK-1.
Mouse models were divided into two groups. LDH concentration, ALT concentration, TG concentration, HDL-C concentration, insulin concentration, glucose concentration, amylase concentration, AST concentration, and ALT concentration were measured for sarcopenia mouse models administered with C-82 and sarcopenia mouse models without administration of C-82.

[8] = system: sarcopenia mouse models; assay: Brain function behavioral tests (Barnes maze, fear conditioning, object recognition, open field, social behavior); format: in vivo; settings: administered versus non-administered sarcopenia mouse models
Description: Mouse models were divided into two groups. Short term memory, long term memory, depression, activity level, social interaction, cognitive ability, etc., were tested using a Barnes maze, fear conditioning test, object recognition test, open field test, social behavior test (Crawley version), etc. on sarcopenia mouse models administered with OK-1 and sarcopenia mouse models without administration of OK-1.
These tests are described in http://www.fujita-hu.ac.jp/ to smedsci/behaviorcore/equipment/index.html, Barnes maze, a useful task to assess spatial reference memory in the mice (doi: 10.1038/nprot.2007.390), etc., which can be suitably referenced and practiced.
Mouse models were divided into two groups. Short term memory, long term memory, depression, activity level, social interaction, cognitive ability, etc., were tested using a Barnes maze, fear conditioning test, object recognition test, open field test, social behavior test (Crawley version), etc. on sarcopenia mouse models administered with C-82 and sarcopenia mouse models without administration of C-82.
These tests are described in http://www.fujita-hu.ac.jp/to smedsci/behaviorcore/equipment/index.html, Barnes maze, a useful task to assess spatial reference memory in the mice (doi: 10.1038/nprot.2007.390), etc., which can be suitably referenced and practiced.

[9] = system: P301S mouse models; assay: Tau phosphorylation, memory and brain atrophy in tauopathy model; format: in vivo; settings: P301S (FTDP-17) mouse model
[10] = system: C2C12 cells; assay: Gene expression levels in treated cultured cells; format: cell-based, mouse
Description: Mouse striated muscle derived cells, i.e., C2C12 cells, were cultured and treated with OK-1, ICG-001, or C-82. Gene expression levels of cells treated with OK-1, ICG-001, or C-82, and untreated cells are compared.

[11] = Body weight and behavior during the dosing period; format: in vivo, mouse; settings: intraperitoneal, twice a week over three months, 20 mg/kg/day; young and old mice
Description: OK-1 manufactured in Manufacturing Example 1 was intraperitoneally administered to young and old mice twice a week over three months. The dosage was 20 mg/kg/day.

[12] = system: Diabetes mouse models (e.g., KK/TaJcl); assay: Diabetes mouse model; format: in vivo; settings: administered versus non-administered group
Description: Diabetes mouse models (e.g., KK/TaJcl) were divided into two groups. OK was administered to one of the groups, and OK was not administered to the other group.

C[C@H]1[C@H]2N(C(=O)CN(C)N2C(=O)NCc2ccccc2)[C@@H](Cc2ccc(O)cc2)C(=O)N1Cc1cccc2cccnc12 [C-82, (6S,9S)—N-benzyl-6-(4-hydroxybenzyl)-2,9-dimethyl-4,7-dioxo-8-(quinolin-8-ylmethyl)hexahydro-2H-pyrazino[2,1-c][1,2,4]triazine-1(6H)-carboxamide]
change in gene expression in muscles ([1]; C-82 administration, same method as Example 2): achieves the same result as OK-1 | gene group associated with C-82 (upstream transcription factor analysis) [2]: Nfkb1, Srebf2, Sp1, Trp53, Xbp1, Myod1, Srebf1, Jun, Stat3, Sp3, Myf6, Nr3c1, Foxo3, Nfe212, Myf5, Ahr, Ep300, Myog, and Usf2 | genes decreased significantly in myoblasts [2]: 611 genes | genes increased significantly in myoblasts [2]: 581 genes | cardiac function [3]: cardiac function is improved | kidney function and muscle (from creatine, IL-6, cholesterol, UN and UA concentrations) [4]: kidney function and muscle improve | bone density [5]: bone density is improved | osteoporosis (from NTX concentration) [6]: osteoporosis is improved | pancreatic function, liver function and salivary gland function [7]: pancreatic function, liver function, and salivary gland function are improved | short term memory, long term memory, depression, activity level, social interaction, cognitive ability [8]: short term memory, long term memory, depression, activity level, social interaction, and cognitive ability are improved | phosphorylation of Tau, memory or brain atrophy [9]: suppression in phosphorylation of Tau and improvement in memory or brain atrophy are observed | gene expression levels versus untreated cells [10]: change in gene expression similar to Example 2

C[C@H]1[C@H]2N(C(=O)CN(C)N2C(=O)NCc2ccccc2)[C@@H](Cc2ccc(OP(=O)(O)O)cc2)C(=O)N1Cc1cccc2cccnc12 [OK-1]
change in body weight and behavioral abnormality during the dosing period [11]: a significant change in body weight and behavioral abnormality were not observed | gene group associated with OK-1 by GSEA: genes regulating muscle genes with exercise ([1]; GSEA): ETS2, ETS1, EP300, RUNX2, SMAD3, SMAD4, E2F1, NOTCH1, TRP53, PAX6, SMAD1, SP1, SPI1, and NFKB1 | genes decreased (downregulated expression) significantly in muscle ([1]; OK-1 administration, p<0.05): 631 genes | genes increased (upregulated expression) significantly in muscle ([1]; OK-1 administration, p<0.05): 145 genes | gene group associated with OK-1: genes associated with muscle control with exercise ([1]; upstream transcription factors): Jun, Ets1, Sp1, Ep300, Usf2, Fosl1, Nfkb1, Smad3, Srf, Junb, Runx2, Ets2, Etv4, Tgfb1, and Tgfb1i1 | cardiac function [3]: cardiac function is improved | muscle (from creatine, IL-6 and cholesterol concentrations) [4]: muscle improves | bone density [5]: bone density is improved | osteoporosis (from NTX concentration) [6]: osteoporosis is improved | pancreatic function, liver function and salivary gland function [7]: pancreatic function, liver function, and salivary gland function are improved | short term memory, long term memory, depression, activity level, social interaction, cognitive ability [8]: short term memory, long term memory, depression, activity level, social interaction, and cognitive ability are improved | phosphorylation of Tau, memory or brain atrophy [9]: suppression in phosphorylation of Tau and improvement in memory or brain atrophy are observed | gene expression levels versus untreated cells [10]: change in gene expression similar to Example 2 | insulin secretion and insulin resistance [12]: at least one of insulin secretion and insulin resistance is improved
